Data on one compound can be found in US20230391727A1, “ANALOGUES OF PENTAMIDINE AND METHODS FOR TREATING INFECTIONS” (Auransa Inc., priority 2020, published 2023).

Converted amounts (≈) assume the structure as drawn. Read-outs that look alike come from different tables or passages of the source.

What all share (assay type): cell-based
The test system of experiment [1] is NCI H69 cells. The experiment can be described thus: CellTiter-Glo cell viability assay (cytotoxicity), 8 days. To be noted: Homo sapiens, 192 h, full growth media. Here is the method: The experiment tested pentamidine, Compounds 1-6 in full growth media for 8 days. NCI H69 cells were initially treated with the test compounds on Day 0, and the cells were then replenished with fresh compound dilutions on Day 3. Pentamidine and Compound 1 were tested at 9 concentration points: 100 μM, 33.33 μM, 11.11 μM, 3.70 μM, 1.23 μM, […], 0.05 μM, and 0.02 μM (final DMSO concentration=0.5%). The raw data values from the CellTiter-Glo™ cell viability assay expressed in relative luminescence units were normalized to the vehicle for each individual plate, and any reduction in luminescence indicated a decrease in viability (%). The data was analyzed in GraphPad PRISM using a non-linear sigmoidal plot with variable slope (asymmetric four-point […]), and an IC50 value for each compound was generated based on the normalized dose-response curves and shown in Table 1.

The test system of experiment [2] is Candida albicans ATCC90028. In words: Anti-fungal MIC assay. A digest of the protocol: (§1)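 First, DMSO stocks (6400 μg/ml, 100× highest test level) were diluted to 2× in RPMI-1640 with MOPS at pH 7.0. Trays were then held at 35° C without agitation.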
Experiment [3] deals with Cryptococcus neoformans CN3. The experiment can be described thus: Anti-fungal MIC assay. A digest of the protocol: as §1
Experiment [4] deals with Candida parapsilosis CP1. The experiment can be described thus: Anti-fungal MIC assay. An outline of the steps:
as §1

Experiment [5] deals with Blastomyces dermatitidis BD2. In words: Anti-fungal MIC assay. An outline of the steps: as §1
For experiment [6], the system named is Candida glabrata CG3. The experiment can be described thus: Anti-fungal MIC assay. To be noted: Nakaseomyces glabratus. An outline of the steps: as §1
Experiment [7] concerns Candida auris DI17-48. In words: Anti-fungal MIC assay. To be noted: Candidozyma auris. An outline of the steps: as §1
Experiment [8] concerns Candida parapsilosis ATCC22019. The experiment can be described thus: Anti-fungal MIC assay. To be noted: Lodderomyces parapsilosis. A digest of the protocol:
as §1

Setting [9] is: read-out: MIC, 50% growth inhibition.
The mark [10] stands for this setting: read-out: MIC, 100% growth inhibition.

For orientation: IC50 means the concentration needed to halve the response being measured. The low end stands for higher potency, the high end for lower potency. As a reminder, the MIC is the lowest concentration found to suppress growth. On to `N=C(N)c1ccc(CC[C@H]2CCC[C@@H](CCc3ccc(C(=N)N)cc3)C2)cc1` [Compound 3, 4,4′-(2,2′-((1R,3S)-cyclohexane-1,3-diyl)bis(ethane-2,1-diyl))dibenzimidamide], for which the IC50 in experiment [1] came out at 0.8 µM. In addition, the MIC was 0.5 µg/mL (≈ 1.33 µM) in experiment [2] (setting [9]); 1 µg/mL (≈ 2.66 µM) in experiment [2] (setting [10]); 0.5 µg/mL (≈ 1.33 µM) in experiment [3] (setting [9]); 0.5 µg/mL (≈ 1.33 µM) in experiment [3] (setting [10]); 1 µg/mL (≈ 2.66 µM) in experiment [4] (setting [9]); 8 µg/mL (≈ 21.2 µM) in experiment [4] (setting [10]). The MIC came out at 2 µg/mL (≈ 5.31 µM) in experiment [5] (setting [9]); 4 µg/mL (≈ 10.6 µM) in experiment [5] (setting [10]); 0.5 µg/mL (≈ 1.33 µM) in experiment [6] (setting [9]); 1 µg/mL (≈ 2.66 µM) in experiment [6] (setting [10]); 2 µg/mL (≈ 5.31 µM) in experiment [7] (DI1748, read-out: MIC, 50% growth inhibition); 4 µg/mL (≈ 10.6 µM) in experiment [7] (DI1748, read-out: MIC, 100% growth inhibition). Besides, the minimum inhibitory concentration (MIC) in experiment [8] (ATCC22019, C. parapsilosis ATCC 22019, second round (Table 6), read-out: MIC, 50% growth inhibition) worked out at 0.25 µg/mL (≈ 0.664 µM); in experiment [8] (ATCC22019, Candida parapsilosis ATCC22019, first round (Table 5), read-out: MIC, 50% growth inhibition), 0.5 µg/mL (≈ 1.33 µM); in experiment [8] (ATCC22019, read-out: MIC, 100% growth inhibition, C. parapsilosis ATCC 22019, second round (Table 6)), 0.5 µg/mL (≈ 1.33 µM); in experiment [8] (ATCC22019, read-out: MIC, 100% growth inhibition, Candida parapsilosis ATCC22019, first round (Table 5)) it was 1 µg/mL (≈ 2.66 µM).
